Here are results for 2 molecules from patent US20230147855A1, “METHODS OF GENERATING PLURIPOTENT STEM CELL-DERIVED VASCULAR SMOOTH MUSCLE CELLS, USES, AND COMPOSITION RELATED THERETO” (EMORY UNIVERSITY, priority 2020, published 2023).

Experiment [1] deals with hiPSC-VSMCs. Put plainly: Contractility of hiPSC-VSMCs in response to vasoactive agents. The class given is cell-based, human. The settings on record: hiPSC-VSMCs treated with agent; FIG. 6B. The text has this:
(§1) A significant difference also between cells treated with carbachol and potassium chloride was observed (FIG. 6B).

The subject of experiment [2] is hiPSC-VSMCs. Put plainly: Intracellular calcium flux (Fluo4 fluorescence) in hiPSC-VSMCs. The experiment is classed as cell-based, human. The settings on record: FIG. 6A.
Excerpt: as §1
(Calcium flux is commonly read through the fluorescence of an indicator in the cells.)

As to `[Cl-].[K+]` [KCl, potassium chloride], the contractility entry in experiment [1] was “significantly increased contractility”. Take `C[N+](C)(C)CCOC(N)=O` [carbachol]: the contractility result in experiment [1] was “significantly increased contractility”. Besides, in experiment [2], the “Fluo4 fluorescence (intracellular calcium flux)” value was “dramatic increase”.
